Test results as given in PubChem BioAssay (NCI).
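Where inhibition never reached the appropriate level, the endpoint shown equals the highest concentration tested. Otherwise, values were interpolated linearly from a five-concentration, 48-hour dose response in 96-well plates. Abbreviation: GI50, concentration required for 50% inhibition of growth. TGI is the concentration that stops growth completely.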

Experiments:
Assay in all cases: NCI-60 cell line screen, 48 h
786-0 renal = tested on: 786-0 renal
A498 renal = tested on: A498 renal
A549 NSCLC = tested on: A549 NSCLC
ACHN renal = tested on: ACHN renal
BT-549 breast = tested on: BT-549 breast
CAKI-1 renal = tested on: CAKI-1 renal
CCRF-CEM leukemia = tested on: CCRF-CEM leukemia
COLO 205 colon = tested on: COLO 205 colon
DU-145 prostate = tested on: DU-145 prostate
EKVX NSCLC = tested on: EKVX NSCLC
HCC-2998 colon = tested on: HCC-2998 colon
HCT-116 colon = tested on: HCT-116 colon
HCT-15 colon = tested on: HCT-15 colon
HL-60(TB) leukemia = tested on: HL-60(TB) leukemia
HOP-62 NSCLC = tested on: HOP-62 NSCLC
HOP-92 NSCLC = tested on: HOP-92 NSCLC
HS 578T breast = tested on: HS 578T breast
HT29 colon = tested on: HT29 colon
IGROV1 ovarian = tested on: IGROV1 ovarian
K-562 leukemia = tested on: K-562 leukemia
KM12 colon = tested on: KM12 colon
LOX IMVI melanoma = tested on: LOX IMVI melanoma
M14 melanoma = tested on: M14 melanoma
MALME-3M melanoma = tested on: MALME-3M melanoma
MCF7 breast = tested on: MCF7 breast
MDA-MB-231 breast = tested on: MDA-MB-231 breast
MDA-MB-435 = tested on: MDA-MB-435
MOLT-4 leukemia = tested on: MOLT-4 leukemia

Structure (SMILES): O=C1C(N2CCN(c3ccccc3)CC2)=C(Cl)C(=O)c2ncccc21
- GI50 (786-0 renal): 6.43 µM
- TGI (786-0 renal): 18.8 µM
- GI50 (A498 renal): 13.5 µM
- TGI (A498 renal): 34 µM
- GI50 (A549 NSCLC): 16.5 µM
- TGI (A549 NSCLC): 32.6 µM
- GI50 (ACHN renal): 2.21 µM
- TGI (ACHN renal): 5.8 µM
- GI50 (BT-549 breast): 10.2 µM
- TGI (BT-549 breast): 21.8 µM
- GI50 (CAKI-1 renal): 5.5 µM
- TGI (CAKI-1 renal): 18.2 µM
- GI50 (CCRF-CEM leukemia): 2.33 µM
- TGI (CCRF-CEM leukemia): 6.65 µM
- GI50 (COLO 205 colon): 4.53 µM
- TGI (COLO 205 colon): 17.1 µM
- GI50 (DU-145 prostate): 11.3 µM
- TGI (DU-145 prostate): 23.6 µM
- GI50 (EKVX NSCLC): 1.73 µM
- TGI (EKVX NSCLC): 3.38 µM
- GI50 (HCC-2998 colon): 12 µM
- TGI (HCC-2998 colon): 24.9 µM
- GI50 (HCT-116 colon): 1.73 µM
- TGI (HCT-116 colon): 3.11 µM
- GI50 (HCT-15 colon): 2.08 µM
- TGI (HCT-15 colon): 6.22 µM
- GI50 (HL-60(TB) leukemia): 1.36 µM
- TGI (HL-60(TB) leukemia): 3.94 µM
- GI50 (HOP-62 NSCLC): 17.3 µM
- TGI (HOP-62 NSCLC): 31.4 µM
- GI50 (HOP-92 NSCLC): 1.49 µM
- TGI (HOP-92 NSCLC): 2.93 µM
- GI50 (HS 578T breast): 13.6 µM
- TGI (HS 578T breast): 47.4 µM
- GI50 (HT29 colon): 12 µM
- TGI (HT29 colon): 27.3 µM
- GI50 (IGROV1 ovarian): 3.48 µM
- TGI (IGROV1 ovarian): 12.3 µM
- GI50 (K-562 leukemia): 2.04 µM
- TGI (K-562 leukemia): 5.51 µM
- GI50 (KM12 colon): 20.7 µM
- TGI (KM12 colon): 43.6 µM
- GI50 (LOX IMVI melanoma): 1.59 µM
- TGI (LOX IMVI melanoma): 3.07 µM
- GI50 (M14 melanoma): 3.92 µM
- TGI (M14 melanoma): 14.7 µM
- GI50 (MALME-3M melanoma): 1.95 µM
- TGI (MALME-3M melanoma): 4.25 µM
- GI50 (MCF7 breast): 1.65 µM
- TGI (MCF7 breast): 3.6 µM
- GI50 (MDA-MB-231 breast): 1.68 µM
- TGI (MDA-MB-231 breast): 3.21 µM
- GI50 (MDA-MB-435): 1.77 µM
- TGI (MDA-MB-435): 3.29 µM
- GI50 (MOLT-4 leukemia): 1.97 µM
- TGI (MOLT-4 leukemia): 5.38 µM
